From US20250368633A1, “AZEPINE FUSED RING COMPOUND AS RIPK1 INHIBITOR AND USE THEREOF” (ARTIVILA BIOPHARMA, priority 2022, published 2025) come the findings set out here.

In one experiment the test system is U937 cells. Put plainly: Inhibition rate of compound (1 μM) on necroptosis of U937 cells (TSZ-induced, CellTiter-Glo). As to conditions: TSZ (hTNF-α, SM-164, Z-VAD-FMK) 20 hours. Format: cell-based. The method, boiled down:
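Percent inhibition comes from ATP luminescence (CellTiter-Glo), referenced to wells without TSZ and wells with TSZ alone. The compound was added to U937 cells 15 min ahead of a TNF-α/SM-164/Z-VAD-FMK mix, followed by 20 h culture at 37° C, 5% CO2.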
(ATP-based viability assays read luminescence as a measure of living cells.)

For another experiment, the target named is T1, RIPK1 kinase (Homo sapiens, UniProt Q13546).
T1 construct: purchased Promega VA7593
T1 sequence (Q13546 1-671): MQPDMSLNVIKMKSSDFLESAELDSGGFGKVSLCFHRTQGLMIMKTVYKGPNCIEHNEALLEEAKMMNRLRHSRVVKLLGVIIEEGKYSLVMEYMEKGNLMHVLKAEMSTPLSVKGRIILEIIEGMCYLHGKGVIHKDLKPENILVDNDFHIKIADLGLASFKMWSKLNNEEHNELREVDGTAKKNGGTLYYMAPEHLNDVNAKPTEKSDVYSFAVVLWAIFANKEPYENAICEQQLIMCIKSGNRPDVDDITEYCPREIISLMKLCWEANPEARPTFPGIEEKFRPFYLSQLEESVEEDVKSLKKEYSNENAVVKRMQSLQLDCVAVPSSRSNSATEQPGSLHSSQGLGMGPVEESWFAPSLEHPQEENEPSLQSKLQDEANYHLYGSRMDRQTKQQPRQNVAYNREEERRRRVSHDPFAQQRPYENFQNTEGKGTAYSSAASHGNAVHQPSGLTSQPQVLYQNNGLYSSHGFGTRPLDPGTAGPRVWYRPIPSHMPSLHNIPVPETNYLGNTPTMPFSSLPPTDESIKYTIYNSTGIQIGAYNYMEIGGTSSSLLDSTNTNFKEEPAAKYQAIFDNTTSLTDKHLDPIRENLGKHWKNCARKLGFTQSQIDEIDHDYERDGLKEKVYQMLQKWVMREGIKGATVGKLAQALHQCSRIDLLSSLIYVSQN
As to the kind of experiment: In vitro RIPK1 kinase activity assay (ADP-Glo), inhibition by compounds at 1 μM. Format: biochemical. As to conditions: compound 1 μM; ATP 10 μM; MBP substrate 100 μg/mL; read-out: RIPK1 kinase activity inhibition rate range. The method, boiled down: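 Read by ADP-Glo chemiluminescence as percent inhibition: RIPK1 kinase, 15-min room-temperature compound preincubation, then 1-h reaction with MBP (100 μg/mL final) and ATP (10 μM final). Enzyme level was set by titration.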
(In general: In ADP-Glo the light output rises with the ADP produced.)

As usually defined, the inhibition is how much of the control response was suppressed.

On to `CN1C(=O)[C@@H](NC(=O)C(=O)NCCc2cc(F)cc(F)c2)COc2ccc(C#CCCO)cc21` [Example 36, (S)—N^1-(3,5-difluorophenethyl)-N^2-(7-(4-hydroxybut-1-yn-1-yl)-5-methyl-4-oxo-2,3,4,5-tetrahydrobenzo[b][1,4]oxazepin-3-yl)oxalamide], for which the “Inhibition rate range of compounds (1 μM) on U937 cell necroptosis” value (shortened to “Inhibition rate range of compounds”) in the experiment with U937 cells was “A (A: ≥90%)”. The inhibition at 1 µM at RIPK1 kinase was ≥ 75%.

Turning to `CN1C(=O)[C@@H](NC(=O)C(=O)NCc2cccc(F)c2)COc2ccc(C#CCCO)cc21` [Example 39, (S)—N^1-(3-fluorobenzyl)-N^2-(7-(4-hydroxybut-1-yn-1-yl)-5-methyl-4-oxo-2,3,4,5-tetrahydrobenzo[b][1,4]oxazepin-3-yl)oxalamide], the “Inhibition rate range of compounds” value in the experiment with U937 cells is “A (A: ≥90%)”. Moreover, on RIPK1 kinase, the inhibition at 1 µM was ≥ 75%.

With `CN1C(=O)[C@@H](NC(=O)C(=O)NCc2ccc(F)cc2)COc2ccc(C#CCCO)cc21` [Example 40, (S)—N^1-(4-fluorobenzyl)-N^2-(7-(4-hydroxybut-1-yn-1-yl)-5-methyl-4-oxo-2,3,4,5-tetrahydrobenzo[b][1,4]oxazepin-3-yl)oxalamide], the “Inhibition rate range of compounds” value with U937 cells is listed as “A (A: ≥90%)”. The inhibition at 1 µM at RIPK1 kinase is ≥ 75%.

As for `CN1C(=O)[C@@H](NC(=O)C(=O)NCCc2cccc(F)c2)COc2ccc(C#CC(C)(C)O)cc21` [Example 42, (S)—N^1-(3-fluorophenethyl)-N^2-(7-(3-hydroxy-3-methylbut-1-yn-1-yl)-5-methyl-4-oxo-2,3,4,5-tetrahydrobenzo[b][1,4]oxazepin-3-yl)oxalamide], in the experiment with U937 cells, the “Inhibition rate range of compounds” value was “A (A: ≥90%)”. The inhibition at 1 µM at RIPK1 kinase is ≥ 75%.

Regarding `CN1C(=O)[C@@H](NC(=O)C(=O)NCCc2ccccc2)COc2ccc(C#CC3(O)COC3)cc21` [Example 43, (S)—N^1-(7-((3-hydroxyoxetan-3-yl)ethynyl)-5-methyl-4-oxo-2,3,4,5-tetrahydrobenzo[b][1,4]oxazepin-3-yl)-N^2-phenethyloxalamide], the “Inhibition rate range of compounds” value with U937 cells is given as “A (A: ≥90%)”. In addition, the inhibition at 1 µM on RIPK1 kinase was ≥ 75%.

In the case of `CN1C(=O)[C@@H](NC(=O)C(=O)NCCc2ccccc2)COc2ccc(C#CC3(O)CCCCC3)cc21` [Example 44, (S)—N^1-(7-((1-hydroxycyclohexyl)ethynyl)-5-methyl-4-oxo-2,3,4,5-tetrahydrobenzo[b][1,4]oxazepin-3-yl)-N^2-phenethyloxalamide], the “Inhibition rate range of compounds” value in the experiment with U937 cells is reported as “A (A: ≥90%)”. In addition, on RIPK1 kinase, the inhibition at 1 µM was in the range of 50 to 74%.

As to `C/C(C#Cc1ccc2c(c1)N(C)C(=O)[C@@H](NC(=O)C(=O)NCCc1ccccc1)CO2)=C/CO` [Example 45, (S,Z)-N^1-(7-(5-hydroxy-3-methylpent-3-en-1-yn-1-yl)-5-methyl-4-oxo-2,3,4,5-tetrahydrobenzo[b][1,4]oxazepin-3-yl)-N^2-phenethyloxalamide], the “Inhibition rate range of compounds” value in the experiment on U937 cells was “A (A: ≥90%)”. In addition, the inhibition at 1 µM at RIPK1 kinase is ≥ 75%.

In the case of `CN1C(=O)[C@@H](NC(=O)C(=O)NCCc2ccccc2)COc2ccc(C#CCN3CCC(O)C3)cc21` (stereo partly drawn) [Example 46, N^1-((3S)-7-(3-(3-hydroxypyrrolidin-1-yl)prop-1-yn-1-yl)-5-methyl-4-oxo-2,3,4,5-tetrahydrobenzo[b][1,4]oxazepin-3-yl)-N^2-phenethyloxalamide], in the experiment on U937 cells, the “Inhibition rate range of compounds” value is listed as “A (A: ≥90%)”. For the same compound, the inhibition at 1 µM at RIPK1 kinase was ≥ 75%.

`CN1C(=O)[C@@H](NC(=O)C(=O)NCCc2ccccc2)COc2ccc(C#CCN3CCC(=O)CC3)cc21` [Example 47, (S)—N^1-(5-methyl-4-oxo-7-(3-(4-oxopiperidin-1-yl)prop-1-yn-1-yl)-2,3,4,5-tetrahydrobenzo[b][1,4]oxazepin-3-yl)-N^2-phenethyloxalamide]: in the experiment on U937 cells, the “Inhibition rate range of compounds” value is “A (A: ≥90%)”. Besides, on RIPK1 kinase, the inhibition at 1 µM was ≥ 75%.

On to `CN1C(=O)[C@@H](NC(=O)C(=O)NCCc2ccccc2)COc2ccc(C#CCN3CCOCC3)cc21` [Example 48, (S)—N^1-(5-methyl-7-(3-morpholinoprop-1-yn-1-yl)-4-oxo-2,3,4,5-tetrahydrobenzo[b][1,4]oxazepin-3-yl)-N^2-phenethyloxalamide], for which, in the experiment with U937 cells, the “Inhibition rate range of compounds” value is “A (A: ≥90%)”. Moreover, the inhibition at 1 µM at RIPK1 kinase was in the range of 50 to 74%.

Turning to `CN1C(=O)[C@@H](NC(=O)C(=O)NCCc2ccccc2)COc2ccc(C#CCCN)cc21` [Example 50, (S)—N^1-(7-(4-aminobut-1-yn-1-yl)-5-methyl-4-oxo-2,3,4,5-tetrahydrobenzo[b][1,4]oxazepin-3-yl)-N^2-phenethyloxalamide], the “Inhibition rate range of compounds” value with U937 cells was “A (A: ≥90%)”. Besides, on RIPK1 kinase, the inhibition at 1 µM was ≥ 75%.

For `CN1C(=O)[C@@H](NC(=O)C(=O)NCCc2ccccc2)COc2ccc(C#CCCNS(C)(=O)=O)cc21` [Example 51, (S)—N^1-(5-methyl-7-(4-(methylsulfonamido)but-1-yn-1-yl)-4-oxo-2,3,4,5-tetrahydrobenzo[b][1,4]oxazepin-3-yl)-N^2-phenethyloxalamide], in the experiment on U937 cells, the “Inhibition rate range of compounds” value is recorded as “A (A: ≥90%)”. The inhibition at 1 µM at RIPK1 kinase lay in the range of 25 to 49%.

With `COCC#Cc1ccc2c(c1)N(C)C(=O)[C@@H](NC(=O)C(=O)NCCc1ccccc1)CO2` [Example 52, (S)—N^1-(7-(3-methoxyprop-1-yn-1-yl)-5-methyl-4-oxo-2,3,4,5-tetrahydrobenzo[b][1,4]oxazepin-3-yl)-N^2-phenethyloxalamide], the “Inhibition rate range of compounds” value in the experiment with U937 cells is recorded as “A (A: ≥90%)”. The inhibition at 1 µM at RIPK1 kinase was ≥ 75%.

Take `CN1C(=O)C(NC(=O)C(=O)NCCc2ccccc2)CCc2ccc(Br)cc21` (stereo not shown) [Example 61, N^1-(8-bromo-1-methyl-2-oxo-2,3,4,5-tetrahydro-1H-benzo[b]azepin-3-yl)-N^2-phenethyloxalamide]: the “Inhibition rate range of compounds” value in the experiment on U937 cells is recorded as “A (A: ≥90%)”. In addition, the inhibition at 1 µM on RIPK1 kinase is ≥ 75%.

Regarding `CN1C(=O)C(NC(=O)C(=O)NCCc2ccccc2)CCc2ccc(C#CC3CC3)cc21` (stereo not shown) [Example 62, N^1-(8-(cyclopropylethynyl)-1-methyl-2-oxo-2,3,4,5-tetrahydro-1H-benzo[b]azepin-3-yl)-N^2-phenethyloxalamide], in the experiment on U937 cells, the “Inhibition rate range of compounds” value is listed as “A (A: ≥90%)”. The inhibition at 1 µM on RIPK1 kinase is ≥ 75%.

As for `CN1C(=O)C(NC(=O)C(=O)NCCc2ccccc2)CCc2ccc(C#CCCO)cc21` (stereo not shown) [Example 65, N^1-(8-(4-hydroxybut-1-yn-1-yl)-1-methyl-2-oxo-2,3,4,5-tetrahydro-1H-benzo[b]azepin-3-yl)-N^2-phenethyloxalamide], the “Inhibition rate range of compounds” value with U937 cells was “A (A: ≥90%)”. The inhibition at 1 µM at RIPK1 kinase is ≥ 75%.

Turning to `CN1C(=O)C(NC(=O)C(=O)NCCc2ccccc2)CCc2ccc(C#CC3CCNCC3)cc21` (stereo not shown) [Example 66, N^1-(1-methyl-2-oxo-8-(piperidin-4-ylethynyl)-2,3,4,5-tetrahydro-1H-benzo[b]azepin-3-yl)-N^2-phenethyloxalamide], the “Inhibition rate range of compounds” value in the experiment with U937 cells is recorded as “A (A: ≥90%)”. For the same compound, the inhibition at 1 µM on RIPK1 kinase lay within 50 to 74%.
